From ChEMBL document CHEMBL1201861, “Genomics of Drug Sensitity in Cancer screening data, Wellcome Trust Sanger Institute”

Legend:
Test in all cases: cells
Conditions in all cases: Homo sapiens
HuTu80 = type: functional, cell-based, HUTU-80;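 further: growth inhibition of HuTu80 human cells, determined with a cell viability readout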
Description: SANGER: Inhibition of human HUTU-80 cell growth in a cell viability assay.

L-428 = type: functional, cell-based
Description: SANGER: Inhibition of human L-428 cell growth in a cell viability assay.

HT = type: functional, cell-based
Description: SANGER: Inhibition of human HT cell growth in a cell viability assay.

COLO-668 = type: functional, cell-based
Description: SANGER: Inhibition of human COLO-668 cell growth in a cell viability assay.

K562 = type: functional, cell-based
Description: SANGER: Inhibition of human K-562 cell growth in a cell viability assay.

LB1047-RCC = type: functional, cell-based;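 further: inhibition of cell growth, determined with a cell viability assay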
Description: SANGER: Inhibition of human LB1047-RCC cell growth in a cell viability assay.

QIMR-WIL = type: functional, cell-based;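 further: growth inhibition of QIMR-WIL cells, read out with a cell viability assay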
Description: SANGER: Inhibition of human QIMR-WIL cell growth in a cell viability assay.

DOHH-2 = type: functional, cell-based;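 further: growth inhibition of human DOHH-2 cells, read out with a cell viability assay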
Description: SANGER: Inhibition of human DOHH-2 cell growth in a cell viability assay.

NB5 = type: functional, cell-based;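 further: growth inhibition of NB5 cells, read out as cell viability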
Description: SANGER: Inhibition of human NB5 cell growth in a cell viability assay.

ES1 = type: functional, cell-based;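 further: growth inhibition of ES1 cells, read out with a cell viability assay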
Description: SANGER: Inhibition of human ES1 cell growth in a cell viability assay.

TK-10 = type: functional, cell-based;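 further: growth inhibition of TK-10 cells, read out in a cell viability assay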
Description: SANGER: Inhibition of human TK10 cell growth in a cell viability assay.

NB6 = type: functional, cell-based
Description: SANGER: Inhibition of human NB6 cell growth in a cell viability assay.

RPMI-8866 = type: functional, cell-based
Description: SANGER: Inhibition of human RPMI-8866 cell growth in a cell viability assay.

TE-6 = type: functional, cell-based;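 further: growth inhibition of TE-6 cells, read out with a cell viability assay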
Description: SANGER: Inhibition of human TE-6 cell growth in a cell viability assay.

KM-H2 = type: functional, cell-based;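 further: growth inhibition of KM-H2 cells, read out by a cell viability assay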
Description: SANGER: Inhibition of human KM-H2 cell growth in a cell viability assay.

A388 = type: functional, cell-based;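 further: growth inhibition of human A388 cells, read out with a cell viability assay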
Description: SANGER: Inhibition of human A388 cell growth in a cell viability assay.

SNU-C2B = type: functional, cell-based;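 further: cell viability readout used to measure compound-driven suppression of SNU-C2B cell proliferation, IC50 marking half-maximal growth inhibition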
Description: SANGER: Inhibition of human SNU-C2B cell growth in a cell viability assay.

A101D = type: functional, cell-based;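 further: growth inhibition of the cell line, measured with a viability assay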
Description: SANGER: Inhibition of human A101D cell growth in a cell viability assay.

697 = type: functional, cell-based
Description: SANGER: Inhibition of human 697 cell growth in a cell viability assay.

MFH-ino = type: functional, cell-based;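 further: growth inhibition of human MFH-ino cells, read out by a cell viability assay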
Description: SANGER: Inhibition of human MFH-ino cell growth in a cell viability assay.

GI-1 = type: functional, cell-based;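 further: growth inhibition of human GI-1 cells, measured with a cell viability readout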
Description: SANGER: Inhibition of human GI-1 cell growth in a cell viability assay.

HCE-T = type: functional, cell-based;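 further: cell viability assay read-out, reporting inhibition of HCE-T cell growth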
Description: SANGER: Inhibition of human HCE-T cell growth in a cell viability assay.

NCI-H226 = type: functional, cell-based;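 further: cell viability read-out used to gauge growth inhibition of the cells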
Description: SANGER: Inhibition of human NCI-H226 cell growth in a cell viability assay.

GT3TKB = type: functional, cell-based;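 further: growth inhibition of the cell line, read out with a cell viability assay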
Description: SANGER: Inhibition of human GT3TKB cell growth in a cell viability assay.

ACN = type: functional, cell-based;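 further: growth inhibition of the human ACN cell line, read out via cell viability testing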
Description: SANGER: Inhibition of human ACN cell growth in a cell viability assay.

OCI-AML2 = type: functional, cell-based;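 further: growth inhibition of OCI-AML2 cells, read out with a cell viability assay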
Description: SANGER: Inhibition of human OCI-AML2 cell growth in a cell viability assay.

U-87 MG = type: functional, cell-based, U-87MG ATCC;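 further: growth inhibition of the cells measured with a viability assay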
Description: SANGER: Inhibition of human U-87-MG cell growth in a cell viability assay.

CCRF-CEM = type: functional, cell-based;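 further: inhibition of CCRF-CEM cell growth, measured by a cell viability assay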
Description: SANGER: Inhibition of human CCRF-CEM cell growth in a cell viability assay.

DMS-114 = type: functional, cell-based
COLO-824 = type: functional, cell-based
Description: SANGER: Inhibition of human COLO-824 cell growth in a cell viability assay.

TGBC24TKB = type: functional, cell-based;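 further: growth inhibition of human TGBC24TKB cells, read out with a cell viability assay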
Description: SANGER: Inhibition of human TGBC24TKB cell growth in a cell viability assay.

ES4 = type: functional, cell-based;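 further: growth inhibition of human ES4 cells, read out by a cell viability assay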
Description: SANGER: Inhibition of human ES4 cell growth in a cell viability assay.

DU-4475 = type: functional, cell-based
Description: SANGER: Inhibition of human DU-4475 cell growth in a cell viability assay.

LB831-BLC = type: functional, cell-based;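 further: growth inhibition of LB831-BLC cells, read out with a cell viability assay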
Description: SANGER: Inhibition of human LB831-BLC cell growth in a cell viability assay.

ETK-1 = type: functional, cell-based;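 further: growth inhibition of human ETK-1 cells, read out with a cell viability assay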
Description: SANGER: Inhibition of human ETK-1 cell growth in a cell viability assay.

BB65-RCC = type: functional, cell-based;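 further: growth inhibition of the cell line, measured with a cell viability assay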
Description: SANGER: Inhibition of human BB65-RCC cell growth in a cell viability assay.

SK-PN-DW = type: functional, cell-based;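 further: growth inhibition measured with a viability assay on these cells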
Description: SANGER: Inhibition of human SK-PN-DW cell growth in a cell viability assay.

NCI-H1395 = type: functional, cell-based;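 further: cell viability assay read-out quantifying reduced proliferation of human NCI-H1395 cells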
Description: SANGER: Inhibition of human NCI-H1395 cell growth in a cell viability assay.

JVM-3 = type: functional, cell-based;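 further: growth inhibition of human JVM-3 cells, read out with a cell viability assay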
Description: SANGER: Inhibition of human JVM-3 cell growth in a cell viability assay.

IA-LM = type: functional, cell-based;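 further: cell viability assay measuring growth inhibition of human IA-LM cells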
Description: SANGER: Inhibition of human IA-LM cell growth in a cell viability assay.

KM12 = type: functional, cell-based;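 further: KM12 cell growth inhibition, read out with a cell viability assay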
Description: SANGER: Inhibition of human KM12 cell growth in a cell viability assay.

TE-10 = type: functional, cell-based;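 further: growth inhibition of TE-10 cells, measured by a cell viability assay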
Description: SANGER: Inhibition of human TE-10 cell growth in a cell viability assay.

BB30-HNC = type: functional, cell-based;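 further: growth inhibition of the cultured cell line, read out by a cell viability assay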
Description: SANGER: Inhibition of human BB30-HNC cell growth in a cell viability assay.

COLO-829 = type: functional, cell-based
Description: SANGER: Inhibition of human COLO-829 cell growth in a cell viability assay.

ES3 = type: functional, cell-based;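 further: growth inhibition of ES3 cells, read out with a cell viability assay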
Description: SANGER: Inhibition of human ES3 cell growth in a cell viability assay.

LS-1034 = type: functional, cell-based
Description: SANGER: Inhibition of human LS-1034 cell growth in a cell viability assay.

LS-411N = type: functional, cell-based
ONS-76 = type: functional, cell-based;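 further: growth inhibition of human ONS-76 cells, read out with a cell viability assay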
Description: SANGER: Inhibition of human ONS-76 cell growth in a cell viability assay.

LOX IMVI = type: functional, cell-based
Description: SANGER: Inhibition of human LOXIMVI cell growth in a cell viability assay.

NB69 = type: functional, cell-based;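 further: growth inhibition of NB69 cells, determined by a cell viability assay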
Description: SANGER: Inhibition of human NB69 cell growth in a cell viability assay.

KLE = type: functional, cell-based;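 further: growth inhibition of human KLE cells, read out with a cell viability assay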
Description: SANGER: Inhibition of human KLE cell growth in a cell viability assay.

SHP77 = type: functional, cell-based, SHP-77;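 further: growth inhibition of human SHP-77 cells measured by a cell viability assay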
Description: SANGER: Inhibition of human SHP-77 cell growth in a cell viability assay.

A4-Fuk = type: functional, cell-based;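 further: growth inhibition of A4-Fuk cells, read out by a cell viability assay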
Description: SANGER: Inhibition of human A4-Fuk cell growth in a cell viability assay.

MMAC-SF = type: functional, cell-based;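 further: growth inhibition of human MMAC-SF cells, read out with a cell viability assay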
Description: SANGER: Inhibition of human MMAC-SF cell growth in a cell viability assay.

KNS-81-FD = type: functional, cell-based;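 further: growth inhibition of KNS-81-FD cells, read out with a cell viability assay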
Description: SANGER: Inhibition of human KNS-81-FD cell growth in a cell viability assay.

C2BBe1 = type: functional, cell-based;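 further: growth inhibition of C2BBe1 cells, read out through a viability assay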
Description: SANGER: Inhibition of human C2BBe1 cell growth in a cell viability assay.

LXF-289 cell line = type: functional, cell-based
Description: SANGER: Inhibition of human LXF-289 cell growth in a cell viability assay.

MHH-PREB-1 = type: functional, cell-based;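 further: cell viability assay measuring inhibition of proliferation of human MHH-PREB-1 cells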
Description: SANGER: Inhibition of human MHH-PREB-1 cell growth in a cell viability assay.

SNB-75 = type: functional, cell-based;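 further: cell viability assay measuring growth inhibition of human SNB-75 cells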
Description: SANGER: Inhibition of human SNB75 cell growth in a cell viability assay.

HCE-4 = type: functional, cell-based;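 further: cell viability assay measuring inhibition of growth in the human HCE-4 cell line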
Description: SANGER: Inhibition of human HCE-4 cell growth in a cell viability assay.

UACC-257 = type: functional, cell-based
Description: SANGER: Inhibition of human UACC-257 cell growth in a cell viability assay.

ML-2 = type: functional, cell-based;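 further: growth inhibition of ML-2 cells, measured with a cell viability readout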
Description: SANGER: Inhibition of human ML-2 cell growth in a cell viability assay.

SW 954 = type: functional, cell-based;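 further: growth inhibition of SW954 human cancer cells, read out as cell viability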
Description: SANGER: Inhibition of human SW954 cell growth in a cell viability assay.

SF-126 = type: functional, cell-based;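 further: growth inhibition of human SF126 cells, read out with a cell viability assay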
Description: SANGER: Inhibition of human SF126 cell growth in a cell viability assay.

Ramos-2G6-4C10 = type: functional, cell-based
Description: SANGER: Inhibition of human Ramos-2G6-4C10 cell growth in a cell viability assay.

COc1cc(C)c(Sc2cnc(NC(=O)c3ccc(CNC(C)C(C)(C)C)cc3)s2)cc1C(=O)N1CCN(C(C)=O)CC1 (stereo not given)
IC50 (HuTu80): > 10.2 µM
IC50 (L-428): > 10.2 µM
IC50 (HT): > 10.2 µM
IC50 (COLO-668): > 10.2 µM
IC50 (K562): > 10.2 µM
IC50 (LB1047-RCC): > 10.2 µM
IC50 (QIMR-WIL): 10.1 µM
IC50 (DOHH-2): > 10.2 µM
IC50 (NB5): > 10.2 µM
IC50 (ES1): 7.44 µM
IC50 (TK-10): > 10.2 µM
IC50 (NB6): > 10.2 µM
IC50 (RPMI-8866): > 10.2 µM
IC50 (TE-6): > 10.2 µM
IC50 (KM-H2): > 10.2 µM
IC50 (A388): > 10.2 µM
IC50 (SNU-C2B): 4.64 µM
IC50 (A101D): 4.81 µM
IC50 697: 6.66 µM
IC50 (MFH-ino): 3.59 µM
IC50 (GI-1): > 10.2 µM
IC50 (HCE-T): > 10.2 µM
IC50 (NCI-H226): > 10.2 µM
IC50 (GT3TKB): > 10.2 µM
IC50 (ACN): > 10.2 µM
IC50 (OCI-AML2): 7.48 µM
IC50 (U-87 MG): > 10.2 µM
IC50 (CCRF-CEM): > 10.2 µM
IC50 (DMS-114): > 10.2 µM
IC50 (COLO-824): > 10.2 µM
IC50 (TGBC24TKB): > 10.2 µM
IC50 (ES4): 6.56 µM
IC50 (DU-4475): > 10.2 µM
IC50 (LB831-BLC): 6.16 µM
IC50 (ETK-1): 2.24 µM
IC50 (BB65-RCC): > 10.2 µM
IC50 (SK-PN-DW): 10.2 µM
IC50 (NCI-H1395): > 10.2 µM
IC50 (JVM-3): > 10.2 µM
IC50 (IA-LM): 5.39 µM
IC50 (KM12): 2.84 µM
IC50 (TE-10): > 10.2 µM
IC50 (BB30-HNC): 9.34 µM
IC50 (COLO-829): > 10.2 µM
IC50 (ES3): 8.9 µM
IC50 (LS-1034): 7.42 µM
IC50 (LS-411N): 4.34 µM
IC50 (ONS-76): > 10.2 µM
IC50 (LOX IMVI): > 10.2 µM
IC50 (NB69): 6.66 µM
IC50 (KLE): > 10.2 µM
IC50 (SHP77): > 10.2 µM
IC50 (A4-Fuk): 1.62 µM
IC50 (MMAC-SF): > 10.2 µM
IC50 (KNS-81-FD): > 10.2 µM
IC50 (C2BBe1): > 10.2 µM
IC50 (LXF-289 cell line): 9.12 µM
IC50 (MHH-PREB-1): > 10.2 µM
IC50 (SNB-75): 7.11 µM
IC50 (HCE-4): > 10.2 µM
IC50 (UACC-257): > 10.2 µM
IC50 (ML-2): 3.81 µM
IC50 (SW 954): 7.79 µM
IC50 (SF-126): > 10.2 µM
IC50 (Ramos-2G6-4C10): > 10.2 µM
